Laboratory results: patent publication US20220062299A1, “USE OF GLUCOCORTICOID STEROIDS IN PREVENTING AND TREATING CONDITIONS OF MUSCLE WASTING, AGING AND METABOLIC DISORDER” (NORTHWESTERN UNIVERSITY, priority 2018, published 2022)

Tested on: mdx mice
Assay: Multi-modal imaging (FDG-PET, microCT, MR) of live mdx mice
Format: in vivo, mouse
Conditions: weekly prednisone
Text: Multi-modal Imaging (FDG-PET, microCT, MR). Mice were anesthetized in an induction chamber with 3% isoflurane in oxygen, weighed, and then transferred to a dedicated imaging bed with isoflurane delivered via nosecone at 1-2%. Mice were placed in the prone position on a plastic bed and immobilized to minimize changes in position between scans. Respiratory signals were monitored using a digital monitoring system developed by Mediso (Mediso-USA, Boston, Mass.). Mice were imaged with a preclinical microPET/CT imaging system (nanoScan PET/CT, Mediso-USA, Boston, Mass.). CT data was acquired with a 2.2× magnification, <60 μm focal spot, 2×2 binning, with 480 projection views over a full circle, using 50 kVp/[…], with a 300 ms exposure time. The projection data was reconstructed with a voxel size of 250 μm and using filtered (Butterworth filter) backprojection software from Mediso. A bone mineral density standard (GRM GmbH, Moehrendorf, Germany) with hydroxyapatite (HA) from 0 to 1200 mg HA/cm^3 was used to convert the CT images from Hounsfield units to bone mineral density. The HA standard was imaged with the same parameters. For PET imaging, a target of 10 MBq of ^18F-fluordeoxyglucose (FDG) was injected intravenously after mice had been fasted for four hours. PET acquisition parameters were as follows: 1:1 coincidence detection and 30-minute acquisition time. MLEM reconstruction was used with CT for attenuation correction and scattering. Pixel size was set to 0.3×0.3 mm. After completion of PET/CT, each mouse was transferred to the MRI scanner and a reference standard consisting of one tube of canola oil and one tube of water was positioned above its back. MRI was performed on a 9.4T Bruker Biospec MRI system with a 30 cm bore, a 12 cm gradient insert, and an AutoPac laser positioned motorized bed (Bruker Biospin Inc, Billerica, Mass.). Respiratory signals and temperature were monitored using an MR-compatible physiologic monitoring system (SA Instruments, Stonybrook, N.Y.); a warm water circulating system was used to maintain body temperature. A 72 mm quadrature volume coil (Bruker Biospin, Inc, Billerica, Mass.) was used to image each mouse's whole body in two overlapping fields of view. First, the mouse was positioned with the thorax at the magnet's isocenter and imaged using a T1-weighted accelerated spin echo sequence (Rapid Acquisition with Relaxation Enhancement, RARE) with five pairs of interleaved axial slice stacks covering brain to mid-abdomen. TR was nominally set at 1000 ms; with respiratory gating the functional TR was approximately 1500 ms (range 1300-2000 ms). The following additional parameters were used: TE=6.25 ms, RARE factor 4, MTX=256×256, FOV 45×45 mm, 15 slices of 1 mm thick, 4 mm gap between slices, and 2 signal averages. […]

C[C@]12C=CC(=O)C=C1CC[C@@H]1[C@@H]2C(=O)C[C@@]2(C)[C@H]1CC[C@]2(O)C(=O)CO [prednisone, Prednisone]
18FDG uptake in fat: decreasing | fat mass accumulation (magnetic resonance): did not increase | muscle uptake of 18FDG: increase | osteoporosis (bone mineral density, tomography): did not induce osteoporosis
